In experiment [1] the test system is trimethylation level of histone H3K27 in G401 cells. The experiment is described as follows: ELISA (H3K27 trimethylation) analysis in G401 cells. In kind it is cell-based. The note with it: Homo sapiens, G-401, 72 hours, H3K27me3 standardized to H3. As for the experimental part: 3-fold series dilution with DMSO was carried out on the representative compounds of the present disclosure; and 10 concentration gradients were detected for each compound, with the highest detection concentration of 10 μM. The compounds were diluted 200-fold into the G401 cells cultured in a 96-well plate (DMSO at a final concentration of 0.5%). After the cells, administered with the compound, were cultured for 72 hours, the trimethylation level of the histone H3K27 was detected using the ELISA method.
Extraction of the histone: in a 96-well plate, the compound-treated cells were washed three times with 1×PBS (10×PBS buffer (80 g NaCl (Sigma, product number S3014), 2 g KCl (Sigma, product number 60128), 14.4 g Na2HPO4 (Sigma, product number S5136), and 2.4 g KH2PO4 (Sigma, product number P9791) in 1 L of water, adjusting the pH to 7.4)). 100 μL of 0.4 N HCl was added into each well. The plate was placed at 4° C. and gently agitated for 2 hours to lyse the cells. The cell lysate was then neutralized with 80 μL of neutralization buffer (0.5 M disodium hydrogen phosphate, pH 12.5, 2.5 mM DTT; 1% cocktail (Sigma, product number P8340)) (the cell lysate and the neutralization buffer were thoroughly mixed to uniformity).
ELISA detection method: the cell lysate was transferred in parallel to two 384-well detection plates (PerkinElmer, OptiPlate-384HB, product number 6007290), wherein one of the plates was used to detect the H3K27 trimethylation level and the other plate was used to determine the level of H3. PBS was used to adjust the final volume to 50 μL/well. The plates were coated at 4° C. overnight. On the following day, the solution inside the wells was discarded and the plates were washed 5 times with TBST buffer (1×TBS (10×TBS: 24.2 g Tris (Sigma, product number T6066), 80 g NaCl (Sigma, product number S3014) in 1 L of water, adjusting the pH with HCl to 7.6), 0.1% Tween-20) and dried on an absorbent paper by inversion. 70 μL of blocking buffer (TBST, 5% BSA) was added into the coated reaction wells and the plates were incubated at room temperature for 1 hour. The blocking buffer was discarded and primary antibodies were added (30 μL/well). The desired primary antibodies were all diluted with a blocking buffer and the dilution factor was as follows: anti-H3K27me3 antibody (Cell Signaling Technology, product number 9733), 1:2000 dilution; anti-H3 antibody (Cell Signaling Technology, product number 4499), 1:10000 dilution. After the primary antibodies were added, the plates were placed at room temperature and incubated for 1 hour. After the plates were washed with TBST 5 times, the plates were dried by inversion. A secondary antibody (30 μL/well) was added to each of the reaction wells and the plates were incubated at room temperature for 1 hour. The secondary antibody (anti-rabbit antibody (Jackson ImmunoResearch, product number 111-035-003)) was diluted 2000-fold with a blocking buffer before use. After 1 hour, the plates were washed with TBST and dried by inversion. 30 μL of ECL substrate (Pierce, product number 34080) was added into each well and centrifuged at 2000 rpm for 30 seconds. The signal of each sample was detected using SpectraMax (Molecular Devices). Data processing: H3K27 methylation readings were first standardlized using H3 signals and 0.5% DMSO-treated samples was used as the control to calculate the inhibition percentage of the compounds. Data were fit to obtain Dose-Response curves using the GraphPad prism 5 program and the IC50 values of the test compounds were obtained.
(In general: In an ELISA, binding on a coated surface is turned into a signal by an enzyme label.)

The subject of a further experiment is KARPAS-422 cells. The experiment is described as follows: Cell proliferation analysis, KARPAS-422, 13 days, CellTiter-Glo. In kind it is cell-based. The note with it: Homo sapiens, 312 h. How it is done:
Human B-cell non-Hodgkin lymphoma cells, KARPAS-422 S, were cultured in a culture flask using standard cell culture conditions. The medium contained 15% fetal bovine serum (FBS, Invitrogen, product number 10099-141) and 1% penicillin/streptomycin solution (P/S) RPMI-1640 (Invitrogen, product number 11875), and the culture flask was placed and cultured in a sterile incubator at the temperature of 37° C. and […] with a relative humidity of […] To detect the effect of PRC2 inhibitors on cell proliferation, cells in exponential growth phase were taken and seeded into a 96-well plate (Corning, product number 3904) at a density of 1×10^4 cells/well, and 100 μL of the medium was added into each well. Subsequently, the compounds at different concentrations disclosed in the present disclosure were added into the wells where cells had already been seeded (9 concentration gradients were provided for each compound, with the highest detection concentration at 10 μM, 3-fold gradient dilution) and two replicates in parallel were provided for each treatment concentration. DMSO was at a final concentration of 0.5%. Afterwards, viable cell numbers were determined using Vi-CELL (Beckman Coulter) every 3-4 days. Cells counted were seeded into a new 96-well plate at the same density (1×10^4 cells/well) each time. The wells were supplemented with a fresh medium to 100 μL and at the same time, compounds at different concentrations were added. The cells were cultured to day 13. 100 μL of CellTiter-Glo (CellTiter-GloCellTiter-GloCellTiter-GloCTG) (Promega, product number G7573) was added into each well. The plate was placed in the dark at room temperature for 10-20 minutes and the luminescence signal was read using SpectraMax i3× (Molecular Devices).
(In general: In ATP-based viability assays light output follows the ATP content of the culture.)

As a reminder, the IC50 is the concentration that gives 50% inhibition.

For the compound `Fc1ccc2c(c1CNc1ncc(-c3cccc4cn[nH]c34)c3nncn13)CCO2` [N-((5-fluoro-2,3-dihydrobenzofuran-4-yl)methyl)-8-(1H-indazol-7-yl)-[1,2,4]triazolo[4,3-c]pyrimidin-5-amine], the IC50 in experiment [1] amounted to 0.0016 µM; in the experiment with KARPAS-422 cells, 0.0023 µM.
Consider `CC(C)(O)COCc1ccc(-c2cnc(NCc3c(F)ccc4c3CCO4)n3cnnc23)c2ncnn12` [1-((8-(5-(((5-fluoro-2,3-dihydrobenzofuran-4-yl)methyl)amino)-[1,2,4]triazolo[4,3-c]pyrimidin-8-yl)-[1,2,4]triazolo[1,5-a]pyridin-5-yl)methoxy)-2-methylpropan-2-ol], for which the IC50 in experiment [1] amounted to 0.0064 µM; with KARPAS-422 cells, 0.0012 µM.
For `Fc1ccc2c(c1CNc1ncc(-c3ccc(N4CC5(COC5)C4)n4ncnc34)c3nncn13)CCO2` [8-(5-(2-oxa-6-azaspiro[3.3]heptan-6-yl)-[1,2,4]triazolo[1,5-a]pyridin-8-yl)-N-((5-fluoro-2,3-dihydrobenzofuran-4-yl)methyl)-[1,2,4]triazolo[4,3-c]pyrimidin-5-amine], the IC50 is 0.0017 µM in experiment [1] and 0.0018 µM in the experiment on KARPAS-422 cells.
Regarding `Cc1ccc(-c2cnc(NCc3c(F)ccc4c3CCO4)n3cnnc23)c2nc(C(=O)N(C)C)cn12` [8-(5-(((5-fluoro-2,3-dihydrobenzofuran-4-yl)methyl)amino)-[1,2,4]triazolo[4,3-c]pyrimidin-8-yl)-N,N,5-trimethylimidazo[1,2-a]pyridine-2-carboxamide], the IC50 in experiment [1] was 0.0023 µM; in the experiment with KARPAS-422 cells, 0.0028 µM.
Turning to `CN(C)C(=O)c1ccc(-c2cnc(NCc3c(F)ccc4c3CCO4)n3cnnc23)c2nccn12` [8-(5-(((5-fluoro-2,3-dihydrobenzofuran-4-yl)methyl)amino)-[1,2,4]triazolo[4,3-c]pyrimidin-8-yl)-N,N-dimethylimidazo[1,2-a]pyridine-5-carboxamide], the values for the IC50 (in experiment [1]; with KARPAS-422 cells) were 0.0007 µM and 0.0013 µM, respectively.
Turning to `CC(C)(O)CNCc1ccc(-c2cnc(NCc3c(F)ccc4c3CCO4)n3cnnc23)c2ncnn12` [1-(((8-(5-(((5-fluoro-2,3-dihydrobenzofuran-4-yl)methyl)amino)-[1,2,4]triazolo[4,3-c]pyrimidin-8-yl)-[1,2,4]triazolo[1,5-a]pyridin-5-yl)methyl)amino)-2-methylpropan-2-ol], the IC50 is 0.0022 µM in experiment [1] and 0.0021 µM in the experiment on KARPAS-422 cells.
On to `Cc1ccc(-c2cnc(NCc3c(F)ccc4c3CCO4)n3cnnc23)c2ncc(CC#N)n12` [2-(8-(5-(((5-fluoro-2,3-dihydrobenzofuran-4-yl)methyl)amino)-[1,2,4]triazolo[4,3-c]pyrimidin-8-yl)-5-methylimidazo[1,2-a]pyridin-3-yl)acetonitrile], for which the IC50 in experiment [1] was 0.007 µM; in the experiment on KARPAS-422 cells it was 0.0014 µM.
Consider `CN(C)C(=O)c1cnc2c(-c3cnc(NCc4c(F)ccc5c4CCO5)n4cnnc34)cc(F)cn12` [6-fluoro-8-(5-(((5-fluoro-2,3-dihydrobenzofuran-4-yl)methyl)amino)-[1,2,4]triazolo[4,3-c]pyrimidin-8-yl)-N,N-dimethylimidazo[1,2-a]pyridine-3-carboxamide], for which the IC50 in experiment [1] amounted to 0.0047 µM; in the experiment with KARPAS-422 cells, 0.0024 µM.
Taken in the same sequence, the figures for `COc1cc(-c2cnc(NCc3c(F)ccc4c3CCO4)n3cnnc23)c2ncnn2c1` [N-((5-fluoro-2,3-dihydrobenzofuran-4-yl)methyl)-8-(6-methoxy-[1,2,4]triazolo[1,5-a]pyridin-8-yl)-[1,2,4]triazolo[4,3-c]pyrimidin-5-amine] were 0.0012 µM and 0.0017 µM.
Consider `CN1CCN(Cc2ccc(-c3cnc(NCc4c(F)ccc5c4CCO5)n4cnnc34)c3ncnn23)CC1` [N-((5-fluoro-2,3-dihydrobenzofuran-4-yl)methyl)-8-(5-((4-methylpiperazin-1-yl)methyl)-[1,2,4]triazolo[1,5-a]pyridin-8-yl)-[1,2,4]triazolo[4,3-c]pyrimidin-5-amine], for which the values for the IC50 (in experiment [1]; with KARPAS-422 cells) were 0.0011 µM and 0.0007 µM, respectively.
On the same counts, the results for `N#Cc1ccc(-c2cnc(NCc3c(F)ccc4c3CCO4)n3cnnc23)c2nccn12` [8-(5-(((5-fluoro-2,3-dihydrobenzofuran-4-yl)methyl)amino)-[1,2,4]triazolo[4,3-c]pyrimidin-8-yl)imidazo[1,2-a]pyridine-5-carbonitrile] are 0.0048 µM and 0.0036 µM.
Take `Fc1ccc2c(c1CNc1ncc(-c3ccc(CN4CCOCC4)n4ncnc34)c3nncn13)CCO2` [N-((5-fluoro-2,3-dihydrobenzofuran-4-yl)methyl)-8-(5-(morpholinomethyl)-[1,2,4]triazolo[1,5-a]pyridin-8-yl)-[1,2,4]triazolo[4,3-c]pyrimidin-5-amine]: the IC50 (in experiment [1]; in the experiment on KARPAS-422 cells) was 0.0011 µM each time.
Turning to `Cc1ccc(-c2cnc(NCc3c(F)ccc4c3CCO4)n3cnnc23)c2ncc(C(=O)N3CCOCC3)n12` [(8-(5-(((5-fluoro-2,3-dihydrobenzofuran-4-yl)methyl)amino)-[1,2,4]triazolo[4,3-c]pyrimidin-8-yl)-5-methylimidazo[1,2-a]pyridin-3-yl)(morpholino)methanone], the IC50 in experiment [1] is 0.0024 µM; in the experiment with KARPAS-422 cells it was 0.0011 µM.
Take `Cc1ccc(-c2cnc(NCc3c(F)ccc4c3CCO4)n3cnnc23)c2nncn12` [N-((5-fluoro-2,3-dihydrobenzofuran-4-yl)methyl)-8-(5-methyl-[1,2,4]triazolo[4,3-a]pyridin-8-yl)-[1,2,4]triazolo[4,3-c]pyrimidin-5-amine]: the IC50 (in experiment [1]; in the experiment with KARPAS-422 cells) was 0.0002 µM throughout.
Take `COc1ccc(-c2cnc(NCc3c(F)ccc4c3CCO4)n3cnnc23)c2ncc(C#N)n12` [8-(5-(((5-fluoro-2,3-dihydrobenzofuran-4-yl)methyl)amino)-[1,2,4]triazolo[4,3-c]pyrimidin-8-yl)-5-methoxyimidazo[1,2-a]pyridine-3-carbonitrile]: the IC50 in experiment [1] came to 0.0039 µM; with KARPAS-422 cells, 0.0062 µM.
On the same counts, the results for `CN(C)Cc1ccc(-c2cnc(NCc3c(F)ccc4c3CCO4)n3cnnc23)c2ncnn12` [8-(5-((dimethylamino)methyl)-[1,2,4]triazolo[1,5-a]pyridin-8-yl)-N-((5-fluoro-2,3-dihydrobenzofuran-4-yl)methyl)-[1,2,4]triazolo[4,3-c]pyrimidin-5-amine] are 0.0006 µM and 0.0005 µM.
For the compound `Cc1ccc(-c2cnc(NCc3c(F)ccc4c3CCO4)n3cnnc23)c2nnnn12` [N-((5-fluoro-2,3-dihydrobenzofuran-4-yl)methyl)-8-(5-methyltetrazolo[1,5-a]pyridin-8-yl)-[1,2,4]triazolo[4,3-c]pyrimidin-5-amine], the IC50 in experiment [1] worked out at 0.0024 µM; in the experiment with KARPAS-422 cells, 0.0025 µM.

These data come from US12583870B2, “Azaheteroaryl compound and application thereof” (SHANGHAI BLUERAY BIOPHARMA CO., LTD., priority 2019, dated 2026).
